Data on two molecules can be found in ChEMBL document CHEMBL1154355, “Identification of the bioactive constituent and its mechanisms of action in mediating the anti-inflammatory effects of black cohosh and related Cimicifuga species on human primary blood macrophages” (2009).

In assay [1] the test system is PBMC. Briefly: Antiinflammatory activity in human PBMC assessed as inhibition of 1 ng/ml LPS-induced TNFalpha release at 140 uM pretreated 24 hrs before inducer-challenge measured 24 hrs after LPS addition by ELISA. The assay is classed as functional.
Assay [2] has as its system PBMC. In words: Inhibition of LPS-induced NFkappaB p65 subunit translocation into nucleus in human PBMC at 140 uM pretreated 24 hrs before inducer-challenge measured 15 mins after LPS addition by Western blot. The assay is classed as functional, cell-based.
Assay [3] deals with PBMC. Briefly: Antiinflammatory activity in human PBMC assessed as inhibition of 10 ng/ml LPS-induced TNFalpha release at 140 uM pretreated 24 hrs before inducer-challenge measured 24 hrs after LPS addition by ELISA. The assay is classed as functional.
In assay [4] the target is MAP kinase p38 (Homo sapiens) (UniProt O15264+Q15759+Q16539+P53778). Briefly: Inhibition of LPS-induced p38 MAPK phosphorylation in human PBMC at 140 uM pretreated 24 hrs before inducer-challenge measured 15 mins after LPS addition by Western blot. The assay is classed as protein assay.
Assay [5] deals with Mitogen-activated protein kinase; ERK1/ERK2 (Homo sapiens) (UniProt P27361+P28482). Briefly: Inhibition of LPS-induced ERK1/2 phosphorylation in human PBMC at 140 uM pretreated 24 hrs before inducer-challenge measured 15 mins after LPS addition by Western blot. The assay is classed as protein assay.
Sequence of Mitogen-activated protein kinase; ERK1/ERK2 (Homo sapiens) (P27361 whole entry, looked up): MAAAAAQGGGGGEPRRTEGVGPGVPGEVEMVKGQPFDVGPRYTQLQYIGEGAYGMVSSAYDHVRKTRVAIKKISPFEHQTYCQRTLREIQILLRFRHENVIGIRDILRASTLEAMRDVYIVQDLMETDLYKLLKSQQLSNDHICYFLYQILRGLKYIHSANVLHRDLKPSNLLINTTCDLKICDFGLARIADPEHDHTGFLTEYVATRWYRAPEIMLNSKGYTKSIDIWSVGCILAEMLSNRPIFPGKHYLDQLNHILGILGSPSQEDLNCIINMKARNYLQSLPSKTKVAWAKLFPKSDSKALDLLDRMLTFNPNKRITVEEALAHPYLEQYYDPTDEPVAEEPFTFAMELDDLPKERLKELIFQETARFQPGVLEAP
Sequence of Mitogen-activated protein kinase; ERK1/ERK2 (Homo sapiens) (P28482 whole entry, looked up): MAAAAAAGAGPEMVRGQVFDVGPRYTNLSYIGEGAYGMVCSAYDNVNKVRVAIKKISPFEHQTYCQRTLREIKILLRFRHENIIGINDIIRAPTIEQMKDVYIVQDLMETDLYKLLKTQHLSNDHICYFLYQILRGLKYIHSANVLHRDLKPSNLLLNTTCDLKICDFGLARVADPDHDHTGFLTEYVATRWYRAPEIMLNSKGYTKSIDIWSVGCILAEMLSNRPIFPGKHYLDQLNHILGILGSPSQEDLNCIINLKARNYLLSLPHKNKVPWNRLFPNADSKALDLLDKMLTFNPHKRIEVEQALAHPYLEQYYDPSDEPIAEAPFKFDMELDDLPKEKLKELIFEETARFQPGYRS
In assay [6] the test system is PBMC. Briefly: Antiinflammatory activity in human PBMC assessed as inhibition of 10 ng/ml LPS-induced TNFalpha release at 5.1 uM pretreated 24 hrs before inducer-challenge measured 24 hrs after LPS addition by ELISA. The assay is classed as functional.
Assay [7] has as its system PBMC. Briefly: Antiinflammatory activity in human PBMC assessed as inhibition of 10 ng/ml LPS-induced TNFalpha release at 1.3 uM pretreated 24 hrs before inducer-challenge measured 24 hrs after LPS addition by ELISA. The assay is classed as functional.

Active and inactive are the calls of the source. The rule behind the calls is not given here.

Take `COc1ccc(/C=C/C(=O)OCC(=O)Cc2ccc(O)c(O)c2)cc1O` [CIMIRACEMATE A]: the “inhibition (INH)” value is listed as 47% with PBMC [1] and 58% with PBMC [3]. Besides, the inhibition result (with PBMC [2]; in assay [5]) was “Active” throughout. In addition, the inhibition result in assay [4] is “inactive”.

In the case of `C[C@@H]1C[C@H]2[C@@H]3CCC4=CC(=O)C=C[C@]4(C)[C@@]3(F)[C@@H](O)C[C@]2(C)[C@@]1(O)C(=O)CO` [DEXAMETHASONE], the “inhibition (INH)” value with PBMC [6] was found to be 25%; in the assay with PBMC [7], 32%.
